According to patent US6100237A, “Use of des-Aspartate-angiotensin I as an agent for the treatment and prevention of neointima formation, restenosis, and arteriosclerosis” (National University of Singapore, priority 1997, dated 2000):
No end group written: not given here.

System: spontaneously hypertensive rat (SHR)
Test: Chronic development of arteriosclerosis (abdominal aorta morphometry, tail cuff blood pressure), chronic oral administration, SHR
Assay type: in vivo, spontaneously hypertensive rats (SHR)
Settings: 0.9 mg/kg/day oral; weight taken at 12, 27 and 47 weeks old (data not shown)
Procedure: Five weeks old WKY and SHR were housed four to a cage. Four SHR and four WKY were orally administered 0.9 mg/kg/day of des-Aspartate-angiotensin I in 0.5 ml of saline daily for 47 weeks. Four SHR and another four WKY served as control animals and were administered 0.5 ml saline solution daily for 47 weeks. The weight of the animals were determined weekly till 12 weeks old, fortnightly till 27 weeks old and monthly till 47 weeks old. The dose of des-Aspartate-angiotensin I was adjusted to match the increase in weight as the animals grew. The dose of 0.9 mg/kg/day was calculated based on the maximum effective oral anti-cardiac hypertrophic dose (250 nmole per rat of average weight of 325 g) in the previous patent.
The blood pressure of the animals was determined by the tail cuff method on the 46th week of treatment. On the 47th week, animals were anaesthetized with chloral hydrate and a 3-cm section (measured from the left renal artery) of the abdominal aorta was removed and fixed in 4% paraformaldehyde and 1% glutaraldehyde. The aorta was processed for paraffin embedment. 10-μ thick sections were prepared and stained with toluidine blue. Fifty such sections, cut from the distal end of the artery, were used for quantitation. The area of the medial smooth muscle cells was quantitated morphometrically as described above. The area was converted to volume by multiplying by 10μ.

## RVYIHPFHL [des-Aspartate-angiotensin I]
  animal weight: no significant effect
